One data set concerns the target mTOR (Homo sapiens, UniProt P42345). The data set is described as follows: mTOR inhibition (Table 3). The data set is classed as biochemical. The settings on record: average of 2 or more experiments.
The subject of data set [1] is pS6. Put plainly: PC3 cellular activity: pS6 (mTORC1) inhibition. Conditions: Homo sapiens, PC-3; average of 2 or more experiments. Type of data set: cell-based.
Data set [2] concerns pAktS473. The data set is described as follows: PC3 cellular activity: pAktS473 (mTORC2) inhibition. Type of data set: cell-based. Conditions: Homo sapiens, PC-3; average of 2 or more experiments; read-out: PC3 Cellular Activity pAkt IC50.
The next data set is described as follows: Oral bioavailability. Also on record: species or system rodent. The settings on record: in vivo.
Data set [3] has as its system PC3 prostate cancer cell lines. Put plainly: PC3 cellular activity: proliferation. The settings on record: Homo sapiens, PC-3, read-out: PC3 Cellular Activity Prolif IC50.
The target of the next data set is 249 kinases. Put plainly: Single point kinase selectivity assay against 249 kinases. Type of data set: biochemical. Conditions: 10 μM.
Another data set has as its target FMS (Homo sapiens, UniProt P07333). Put plainly: FMS concentration-response curve. Type of data set: biochemical.
For a further data set, the system named is PC3 xenograft. The data set is classed as in vivo.
Data set [4] deals with pS6. The data set is described as follows: Tumor pS6 after single dose of Compound 6 (PK/PD). The data set is classed as in vivo, mice. Conditions: for inhibition at 30 mg/kg: Mus musculus, 30 mg/kg single dose.
Data set [5] has as its system pAktS473. Put plainly: Tumor pAktS473 after single dose of Compound 6 (PK/PD). Type of data set: in vivo, mice. Conditions: Mus musculus, 30 mg/kg single dose.
Data set [6] can be described thus: Compound 6 plasma and tumor levels (PK/PD). Type of data set: in vivo, mice. The settings on record: 30 mg/kg single dose, by 24 h.
In the next data set the test system is 4E-BP1(T46). The data set is described as follows: Phospho-4E-BP1(T46) in PC3 cell lysates, Luminex multiplex. Type of data set: cell-based, human. Conditions: PC3 cells, up to concentrations of 10 μM. The source says:
(§1) The direct substrate for TORC1 was 4E-BP 1(T46) and indirect downstream substrate was S6RP(S235/S236). The direct substrate for TORC2 was Akt(S473) and indirect downstream substrates measured were GSK3β(S9) and PRAS40(T246). Additionally, the phosphorylation status of Akt(T308), a phosphorylation site for PDK1 was monitored.
The multiplex Luminex assay format differs from conventional enzyme-linked immunosorbent assay (ELISA) in that the multiplex capture antibody is attached to a polystyrene bead whereas the ELISA capture antibody is attached to the microplate well. The use of the suspension bead-based technology enables the multiplexing capabilities of the Luminex assays. The xMAP® technology uses 5.6 micron polystyrene microspheres, which are internally dyed with red and infrared fluorophores of differing intensities. Each bead is given a unique number, or bead region, allowing differentiation of one bead from another. Beads covalently bound to different specific antibodies can be mixed in the same assay, utilizing a 96-well microplate format. At the completion of the sandwich immunoassay, beads can be read, using the Luminex 100™ or Luminex 200 detection system, in single-file by dual lasers for classification and quantification of each analyte. […]

For a further data set, the system named is S6RP(S235/S236). Put plainly: Phospho-S6RP(S235/S236) in PC3 cell lysates, MSD. The data set is classed as cell-based, human. The settings on record: Homo sapiens, PC-3, 1 h, PC3 cells, 1 hour; two values; read-out: IC50 for inhibition of S6RP(S235/S236) phosphorylation.
Source text: as §1
(§2) MSD® biomarker detection assays provide a rapid and convenient method for measuring the total and phosphorylated levels of protein targets within a single small volume sample. These assays are available in both single-plex and multiplex formats. In a single-plex assay, an antibody for a specific protein target is coated on one electrode (or spot) per well. […] MSD Read Buffer that provides the appropriate chemical environment for ECL is added and the plate is read using an MSD SECTOR™ Imager. […] The instrument measures intensity of the emitted light to afford a quantitative measure of the amount of phosphorylated Akt or S6RP present in the sample. […]
(§3) The assay plate was incubated with 150 μL of MSD Blocker A Solution for 1 hour with shaking at room temperature. […] Then 150 μL of 1×MSD Read Buffer T was added to each well. The plate was read on the SECTOR Imager plate reader. The Excel data was transferred to Activity Base and IC50 values were calculated.
(§4) All data was analyzed using XLfit from IDBS. […]

For a further data set, the system named is Akt(S473). The data set is described as follows: Phospho-Akt(S473) in PC3 cell lysates, MSD. The data set is classed as cell-based, human. The settings on record: PC3 cells, data not shown.
Source text: as §1, §2, §3, §4

Data set [7] is described as follows: Body weight in Compound 1 PC3 xenograft efficacy studies. Type of data set: in vivo, SCID mice. Conditions: rapamycin 4 mg/kg, 3 weeks, data not shown. The method, then:
The BID dose groups were dosed with a 10-hour separation between the morning and evening doses. […] At the end of each study, plasma and/or tumor samples were collected.
Initial body weights were recorded prior to the initiation of treatment using a digital scale. The percent body weight change during the course of the study was calculated using initial body weight measurements. Body weights of each animal were measured twice a week at the same time that tumor measurements were taken. Body weights were measured more frequently if significant decreases were noted during the course of the study.

Where two headings read alike, the source gives them in different places.

Sequence of FMS (P07333 20-972, species assumed): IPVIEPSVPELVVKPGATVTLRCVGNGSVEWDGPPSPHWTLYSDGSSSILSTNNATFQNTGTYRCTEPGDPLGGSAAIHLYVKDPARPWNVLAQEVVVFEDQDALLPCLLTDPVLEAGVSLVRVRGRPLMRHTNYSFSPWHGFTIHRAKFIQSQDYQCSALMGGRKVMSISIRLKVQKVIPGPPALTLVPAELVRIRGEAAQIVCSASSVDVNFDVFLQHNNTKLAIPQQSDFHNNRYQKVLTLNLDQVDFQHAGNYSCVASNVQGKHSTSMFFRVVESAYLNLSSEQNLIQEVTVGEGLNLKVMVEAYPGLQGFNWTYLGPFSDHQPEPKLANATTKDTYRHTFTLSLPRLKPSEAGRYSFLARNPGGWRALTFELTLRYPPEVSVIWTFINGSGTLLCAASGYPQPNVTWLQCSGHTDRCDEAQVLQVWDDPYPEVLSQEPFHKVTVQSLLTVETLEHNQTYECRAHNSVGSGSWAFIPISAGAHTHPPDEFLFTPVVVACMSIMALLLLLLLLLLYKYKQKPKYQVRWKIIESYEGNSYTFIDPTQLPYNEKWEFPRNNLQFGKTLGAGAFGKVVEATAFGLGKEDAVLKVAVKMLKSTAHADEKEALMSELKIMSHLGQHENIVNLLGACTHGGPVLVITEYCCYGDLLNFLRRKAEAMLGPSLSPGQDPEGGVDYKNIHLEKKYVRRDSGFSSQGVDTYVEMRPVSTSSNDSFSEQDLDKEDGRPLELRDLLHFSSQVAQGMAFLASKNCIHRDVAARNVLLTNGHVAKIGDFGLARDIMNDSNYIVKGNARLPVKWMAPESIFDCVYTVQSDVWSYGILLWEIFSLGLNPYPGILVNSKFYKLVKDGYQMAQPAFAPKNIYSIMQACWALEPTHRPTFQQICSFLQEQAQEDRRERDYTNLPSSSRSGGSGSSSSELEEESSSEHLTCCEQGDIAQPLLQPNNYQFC

As for `O=c1[nH]c2ncc(-c3ccc(-c4nc[nH]n4)cc3)nc2n1CCC1CCOCC1` [Compound 3], the IC50 is 2 nM against mTOR, 40 nM in the data set on pS6 [1], 18 nM with pAktS473 [2] and 224 nM in [3]. Moreover, the oral bioavailability entry in the data set “Oral bioavailability” was “poor oral bioavailability”.

Turning to `O=C1CN(CCC2CCOCC2)c2nc(-c3ccc(-c4nc[nH]n4)cc3)cnc2N1` [Compound 4], in “Oral bioavailability”, the oral bioavailability entry is “poor oral bioavailability”. The IC50 in data set [3] was found to be 148 nM.

As for `CC(C)(O)c1ccc(-c2cnc3[nH]c(=O)n(CC4CCOCC4)c3n2)cn1` [Compound 5], the IC50 came to 176 nM on mTOR, 2410 nM with pS6 [1], 2550 nM with pAktS473 [2] and 4180 nM in data set [3].

Turning to `CC(C)(O)c1ccc(-c2cnc3c(n2)N(CC2CCOCC2)CC(=O)N3)cn1` [Compound 6], the “kinases other than mTOR inhibited >80%” value at 249 kinases is given as “only one kinase other than mTOR was inhibited >80%”. This compound also came in with an IC50 against FMS of 2700 nM. Moreover, the oral bioavailability entry in the data set “Oral bioavailability” was “excellent oral bioavailablity”. For the same compound, the “tumor volume inhibition compared to vehicle control” value with PC3 xenograft (10 mg/kg oral once daily) was 18%; in the data set with PC3 xenograft (25 mg/kg oral once daily), 63%; in the data set on PC3 xenograft (50 mg/kg oral once daily), 84%. In addition, the tolerability result with PC3 xenograft (all dose levels and schedules, 3 weeks of treatment) is recorded as “well tolerated”. For the same compound, in the data set on PC3 xenograft (oral, once or twice daily or every second day), the PC3 tumor growth entry is on record as “significantly inhibited PC3 tumor growth”. Further, the “biomarker (pS6, pAktS473) inhibition in tumor” value in the data set with pS6 [4] (100 mg/kg single dose, through 24 hours) is listed as “full biomarker inhibition”. The inhibition (in general, the change of the read-out against control, counted positive when it falls) at 30 mg/kg in the data set on pS6 [4] (2-8 h) was 87 to 93%; in the data set on pS6 [4] (24 h), 43%; in the data set with pAktS473 [5] (2-8 h), 53 to 77%; in the data set with pAktS473 [5] (24 h), 28%. Moreover, the “plasma and tumor level of compound” value in data set [6] was “almost completely cleared”.

For the compound `CO[C@H]1C[C@@H]2CC[C@@H](C)[C@@](O)(O2)C(=O)C(=O)N2CCCC[C@H]2C(=O)O[C@H]([C@H](C)C[C@@H]2CC[C@@H](O)[C@H](OC)C2)CC(=O)[C@H](C)/C=C(\C)[C@@H](O)[C@@H](OC)C(=O)[C@H](C)C[C@H](C)/C=C/C=C/C=C/1C` [rapamycin, reference compound], the “inhibition of 4E-BP1(T46) phosphorylation” value in the data set on 4E-BP1(T46) is listed as “not inhibited”. Also, in the data set with S6RP(S235/S236), the IC50 was 0.019 nM. Besides, the “inhibition of Akt(S473) phosphorylation” value in the data set with Akt(S473) is given as “did not inhibit”. In addition, in data set [7], the “change in body weight” value was “No significant change”.

The values above are taken from patent US20140113904A1, “TREATMENT OF CANCER WITH TOR KINASE INHIBITORS” (SIGNAL PHARMACEUTICALS, LLC, priority 2012, published 2014).
